One may read the IC50 as the midpoint of a concentration-inhibition curve.

Where two headings read alike, the source gives them in different places. Peptide text beside a SMILES is read from it. * marks the point of attachment. Boc = CC(C)(C)OC(=O)*; OBn = c1ccc(CO*)cc1

Experiment [1] has as its target T1, NKA receptor (Mesocricetus auratus, UniProt P51144).
T1 construct: from tissue; host or cells: hamster respiratory tract (trachea) ring specimens
T1 sequence (P51144 1-384): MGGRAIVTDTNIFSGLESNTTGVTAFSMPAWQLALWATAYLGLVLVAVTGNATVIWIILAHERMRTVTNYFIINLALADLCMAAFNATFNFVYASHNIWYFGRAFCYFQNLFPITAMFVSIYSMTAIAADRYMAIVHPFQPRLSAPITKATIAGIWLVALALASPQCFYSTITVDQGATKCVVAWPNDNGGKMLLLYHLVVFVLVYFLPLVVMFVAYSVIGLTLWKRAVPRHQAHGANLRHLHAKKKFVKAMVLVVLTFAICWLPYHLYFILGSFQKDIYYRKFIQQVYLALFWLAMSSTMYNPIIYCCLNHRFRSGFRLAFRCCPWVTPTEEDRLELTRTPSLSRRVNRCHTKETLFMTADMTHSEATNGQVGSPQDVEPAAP
In words: Activity to constriction of hamster respiratory tracts caused by NKA (isolated tissue, tension). The experiment is classed as cell-based. How it is done:
The activity of the azapeptide derivative of the present invention to a NKA receptor was evaluated by the following method.
(1) Activity to constriction of hamster respiratory tracts caused by NKA
Respiratory tracts were taken out from male Syrian strain Golden hamsters having a body weight of 100 to 180 g, and cyclic specimens having a width of 3 to 6 mm were prepared. The specimens were incubated at 37° C. and suspended by loading a static tension of 0.5 g, in a reaction tank charged with 15 ml of a Tyrode solution (137 mM of NaCl, 2.7 mM of KCl, 1.8 mM of CaCl2, 1.02 mM of MgCl2, 11.9 mM of NaHCO3, 0.42 mM of NaH2 PO4 and 5.5 mM of glucose) in which 95% O2 -5% CO2 had been passed.
The compound to be tested was charged into the reaction tank and maintained for 5 minutes. 1×10^-7 M of NKA was charged into the reaction tank, and tension caused thereby was recorded. The examined effect of the tested compound as an antagonist was shown by IC50.

Experiment [2] concerns the target T2, NKA receptor (Cavia porcellus, UniProt Q64077).
T2 construct: Male Hartley strain guinea pigs having a body weight of 350 to 500 g were anesthetized; from tissue; host or cells: whole anaesthetized guinea pig (airways, in vivo)
T2 sequence (Q64077 1-402): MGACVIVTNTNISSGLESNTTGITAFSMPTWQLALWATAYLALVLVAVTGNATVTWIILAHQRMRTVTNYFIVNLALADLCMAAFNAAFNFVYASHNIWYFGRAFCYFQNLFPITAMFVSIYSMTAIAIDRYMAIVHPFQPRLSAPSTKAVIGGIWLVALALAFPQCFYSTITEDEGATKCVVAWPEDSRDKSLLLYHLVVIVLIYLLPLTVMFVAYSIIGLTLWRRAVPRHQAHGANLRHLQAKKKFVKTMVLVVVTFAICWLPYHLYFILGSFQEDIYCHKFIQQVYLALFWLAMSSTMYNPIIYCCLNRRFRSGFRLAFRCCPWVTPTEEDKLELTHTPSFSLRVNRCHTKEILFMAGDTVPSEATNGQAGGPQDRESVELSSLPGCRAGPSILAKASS
In words: Activity to constriction of guinea pig respiratory tracts caused by NKA (in vivo, excess air amount). The note with it: anesthetized guinea pigs, cervical vein; for Controlling rate (%) 1 min: 2 nmol/kg NKA given 1 min after test compound; for Controlling rate (%) 15 min: 2 nmol/kg NKA given 15 min after test compound. How it is done: (2) Activity to constriction of guinea pig respiratory tracts caused by NKA
Male Hartley strain guinea pigs having a body weight of 350 to 500 g were anesthetized by administering 1.5 g/kg of urethane into abdominal cavities thereof. Cannulas made of polyethylene were inserted into cervical veins and respiratory tracts. From the cervical vein cannulas, 1 mg of gallamine was administered to stop respiration. The respiratory tract cannulas were connected to a respirator, and artificial respiration was carried out with an air-supplying amount at one time of 4 to 6 ml and an air-supplying frequency of 70 times/min. Side branches of the respiratory tract cannulas were introduced into a water tank, and a hydraulic pressure of 8 cm H2 O was loaded. Excess air amounts exceeding the above hydraulic pressure and discharged were measured. From the cervical vein cannulas, 2 nmol/kg of NKA was administered, each compound to be tested was administered after 15 minutes, and further 2 nmol/kg of NKA was administered after 1, 15, 30, 45 and 60 minutes, respectively. The increased amounts of excess air after the respective NKA administrations were measured, and percentages relative to the increased amounts of excess air when the respiratory tracts were completely closed were determined, which were defined as respiratory constriction rates. The decreased ratios of the respiratory constriction rates after administering the compounds to be tested to the respiratory constriction rates before administering the compounds to be tested were shown by percentages, which were defined as controlling rates. The controlling rates were regarded as an effect of the compound to be tested as an antagonist.

[3] abbreviates: mole concentration giving 50% control of tension caused by 1×10^-7 M NKA, compound maintained 5 minutes, hamster respiratory tract specimens, read-out: IC50.

In the case of `NC(=O)C[C@H](NC(=O)OCc1ccccc1)C(=O)N[C@@H](Cc1c[nH]c2ccccc12)C(=O)NN(Cc1ccccc1)C(=O)NCCOCc1ccccc1` [Example 12, Z-Asn-Trp-AzPhe-NH(CH2)2 OCH2 Ph], the midpoint of inhibition in experiment [1], the IC50, lay at 4.5 nM. For the same molecule, in experiment [2], the “Controlling rate (%) 1 min” value is 19.5% and the “Controlling rate (%) 15 min” value stood at 73.2%. Besides, the “Controlling rate (%) 30 min” value in experiment [2] (2 nmol/kg NKA given 30 min after test compound) is listed as 62.2%. The “Controlling rate (%) 45 min” value in experiment [2] (2 nmol/kg NKA given 45 min after test compound) is listed as 54.8%. For the same molecule, the “Controlling rate (%) 60 min” value in experiment [2] (2 nmol/kg NKA given 60 min after test compound) was 51.7%. Consider “Ac-LDQWFG-NH2 [Reference example 13, Ac-Leu-Asp-Gln-Trp-Phe-Gly-NH2, reference compound]”, for which the IC50 in experiment [1] (setting [3]) turned out to be 22 nM. In experiment [2], the “Controlling rate (%) 1 min” value is listed as 11.9% and the “Controlling rate (%) 15 min” value was determined as 3.9%.

In the case of `CC(C)CCNC(=O)N[C@@H](CCC(N)=O)C(=O)N[C@@H](Cc1c[nH]c2ccccc12)C(=O)NN(Cc1ccccc1)C(=O)NCCOCc1ccccc1` [Example 7, i-Pent-NHCO-Gln-Trp-AzPhe-NH(CH2)2OCH2 Ph], the IC50 in experiment [1] amounted to 0.5 nM. On the same count and under the same terms, next, `CC(C)(C)NC(=O)N[C@@H](CCC(N)=O)C(=O)N[C@@H](Cc1c[nH]c2ccccc12)C(=O)NN(Cc1ccc(F)cc1)C(=O)NCCOCc1ccccc1` [Example 31, t-Bu-NHCO-Gln-Trp-AzPhe(4-F)-NH(CH2)2 OCH2 Ph]: 0.42 nM. The same measure, in the same setting: next, `CC(C)(C)OC(=O)N[C@@H](Cc1c[nH]c2ccccc12)C(=O)NN(Cc1ccccc1)C(=O)NCCOCc1ccccc1` [Example 2 (1), Boc-Trp-AzPhe-NH(CH2)2 OCH2 Ph]: 310 nM. Consider `Cc1ccc(CN(NC(=O)[C@H](Cc2c[nH]c3ccccc23)NC(=O)[C@H](CCC(N)=O)NC(=O)NC(C)(C)C)C(=O)NCCOCc2ccccc2)c(C)c1` [Example 37 (3), t-Bu-NHCO-Gln-Trp-AzPhe(2,4-diMe)-NH(CH2)2 OCH2 Ph], for which half-maximal inhibition in experiment [1] (IC50) required 0.27 nM. Consider `CC(C)(C)OC(=O)N[C@@H](CC(=O)OCc1ccccc1)C(=O)N[C@@H](CCC(N)=O)C(=O)N[C@@H](Cc1c[nH]c2ccccc12)C(=O)N[C@@H](Cc1ccccc1)C(N)=O` [Reference example 14, Boc-Asp(OBzl)-Gln-Trp-Phe-NH2, reference compound] (Boc-D(OBn)QWF-NH2), for which the IC50 in experiment [1] (setting [3]) is 330 nM. As to `Cc1ccccc1CN(NC(=O)[C@H](Cc1c[nH]c2ccccc12)NC(=O)[C@H](CCC(N)=O)NC(=O)NC(C)(C)C)C(=O)NCCOCc1ccccc1` [Example 33 (3), t-Bu-NHCO-Gln-Trp-AzPhe(2-Me)-NH(CH2)2 OCH2 Ph], in experiment [1], the IC50 worked out at 0.16 nM.

Turning to `Cc1cccc(CN(NC(=O)[C@H](Cc2c[nH]c3ccccc23)NC(=O)[C@H](CCC(N)=O)NC(=O)NC(C)(C)C)C(=O)NCCOCc2ccccc2)c1` [Example 34 (3), t-Bu-NHCO-Gln-Trp-AzPhe(3-Me)-NH(CH2)2 OCH2 Ph], the IC50 in experiment [1] came to 3.9 nM. Take `CC(C)CCC(=O)N[C@@H](CC(=O)OCc1ccccc1)C(=O)N[C@@H](CCC(N)=O)C(=O)N[C@@H](Cc1c[nH]c2ccccc12)C(=O)NN(Cc1ccccc1)C(=O)NCc1ccccc1` [Example 21, i-Pent-CO-Asp(OBzl)-Gln-Trp-AzPhe-NHCH2 Ph]: the IC50 in experiment [1] was determined as 1.7 nM.

The molecule `CC(C)(C)NC(=O)N[C@@H](CCC(N)=O)C(=O)N[C@@H](Cc1c[nH]c2ccccc12)C(=O)NN(Cc1ccccc1F)C(=O)NCCOCc1ccccc1` [Example 39 (3), t-Bu-NHCO-Gln-Trp-AzPhe(2-F)-NH(CH2)2 OCH2 Ph] showed an IC50 in experiment [1] of 0.61 nM. Still for that read-out and setting: next, `CC(C)(C)OC(=O)N[C@@H](CC(=O)OCc1ccccc1)C(=O)N[C@@H](CCC(N)=O)C(=O)N[C@@H](Cc1c[nH]c2ccccc12)C(=O)NN(Cc1ccccc1)C(=O)OCc1ccccc1` [Example 28 (3), Boc-Asp(OBzl)-Gln-Trp-AzPhe-OBzl]: 27 nM; `CC(C)(C)OC(=O)N[C@@H](CCCNC(N)=O)C(=O)N[C@@H](Cc1c[nH]c2ccccc12)C(=O)NN(Cc1ccccc1)C(=O)NCCOCc1ccccc1` [Example 14, Boc-Cit-Trp-AzPhe-NH(CH2)2 OCH2 Ph]: 24 nM; `CC(C)(C)OC(=O)N[C@@H](CC(N)=O)C(=O)N[C@@H](Cc1c[nH]c2ccccc12)C(=O)NN(Cc1ccccc1)C(=O)NCCOCc1ccccc1` [Example 10, Boc-Asn-Trp-AzPhe-NH(CH2)2 OCH2 Ph]: 6.8 nM. The same measure, in the same setting: as for `CC(C)(C)OC(=O)N[C@@H](CC(=O)O)C(=O)N[C@@H](Cc1c[nH]c2ccccc12)C(=O)NN(Cc1ccccc1)C(=O)NCCOCc1ccccc1` [Example 16 (2), Boc-Asp-Trp-AzPhe-NH(CH2)2 OCH2 Ph], the figure is 13 nM; as for `CC(C)(C)OC(=O)N[C@@H](CC(=O)OCc1ccccc1)C(=O)N[C@@H](CCC(N)=O)C(=O)N[C@@H](Cc1c[nH]c2ccccc12)C(=O)NN(Cc1ccccc1)C(=O)NCCOCc1ccccc1` [Example 2 (3), Boc-Asp(OBzl)-Gln-Trp-AzPhe-NH(CH2)2 OCH2 Ph], 1.9 nM. As to `CC(C)(C)OC(=O)N[C@@H](CCCNC(=O)OCc1ccccc1)C(=O)N[C@@H](Cc1c[nH]c2ccccc12)C(=O)NN(Cc1ccccc1)C(=O)NCCOCc1ccccc1` [Example 13 (1), Boc-Orn(Z)-Trp-AzPhe-NH (CH2)2 OCH2 Ph], 80 nM corresponded to half-maximal inhibition in experiment [1] (IC50). In the case of `CC(C)(C)OC(=O)N[C@@H](CC(=O)OCc1ccccc1)C(=O)N[C@@H](CCC(N)=O)C(=O)N[C@@H](Cc1c[nH]c2ccccc12)C(=O)NN(Cc1ccccc1)C(=O)NCCc1ccccc1` [Example 19 (3), Boc-Asp(OBzl)-Gln-Trp-AzPhe-NH(CH2)2 Ph], the IC50 in experiment [1] amounted to 5.3 nM. The same measure, in the same setting: next, `COc1ccc(CNC(=O)N(Cc2ccccc2)NC(=O)[C@H](Cc2c[nH]c3ccccc23)NC(=O)[C@H](CCC(N)=O)NC(=O)[C@H](CC(=O)OCc2ccccc2)NC(=O)OC(C)(C)C)c(OC)c1` [Example 22, Boc-Asp(OBzl)-Gln-Trp-AzPhe-NHDmob]: 4900 nM.

The values above are taken from US5837687A, “Azapeptide derivative” (Fujirebio Inc., priority 1994, dated 1998).
